ChEMBL document CHEMBL5154709, “Tetrazole derivatives bearing benzodiazepine moiety-synthesis and action mode against virulence of Candida albicans” (Eur J Med Chem, 2022)
In brackets after ≈: the same amount, converted by molar mass.

What was measured:
Candida albicans [1] = experiment: Antifungal activity against Candida albicans SC5314 assessed as inhibition of fungal growth at 1 ug/ml incubated for 48 hrs by M27-A3 based microdilution method relative to control; assay type: functional
Candida albicans [2] = experiment: Antifungal activity against Candida albicans SC5314 assessed as inhibition of fungal growth at 16 ug/ml incubated for 48 hrs by M27-A3 based microdilution method relative to control; assay type: functional
Candida albicans [3] = experiment: Antifungal activity against Candida albicans SC5314 assessed as inhibition of fungal growth at 1 ug/ml incubated for 18 hrs by M27-A3 based microdilution method relative to control; assay type: functional
Candida albicans [4] = experiment: Antifungal activity against Candida albicans SC5314 assessed as inhibition of fungal growth at 2 ug/ml incubated for 18 hrs by M27-A3 based microdilution method relative to control; assay type: functional
Candida albicans [5] = experiment: Antifungal activity against Candida albicans SC5314 assessed as inhibition of fungal growth at 0.0625 ug/ml incubated for 48 hrs by M27-A3 based microdilution method relative to control; assay type: functional
Candida albicans [6] = experiment: Antifungal activity against Candida albicans SC5314 assessed as inhibition of fungal growth at 0.125 ug/ml incubated for 48 hrs by M27-A3 based microdilution method relative to control; assay type: functional
Candida albicans [7] = experiment: Antifungal activity against Candida albicans SC5314 assessed as inhibition of fungal growth at 0.5 ug/ml incubated for 18 hrs by M27-A3 based microdilution method relative to control; assay type: functional
Candida albicans [8] = experiment: Antifungal activity against Candida albicans SC5314 assessed as inhibition of fungal growth at 4 ug/ml incubated for 18 hrs by M27-A3 based microdilution method relative to control; assay type: functional
Candida albicans [9] = experiment: Antifungal activity against Candida albicans SC5314 assessed as inhibition of fungal growth at 8 ug/ml incubated for 18 hrs by M27-A3 based microdilution method relative to control; assay type: functional
Candida albicans [10] = experiment: Antifungal activity against Candida albicans SC5314 assessed as inhibition of fungal growth at 0.25 ug/ml incubated for 18 hrs by M27-A3 based microdilution method relative to control; assay type: functional
Candida albicans [11] = experiment: Antifungal activity against Candida albicans SC5314 assessed as inhibition of fungal growth at 0.0625 ug/ml incubated for 18 hrs by M27-A3 based microdilution method relative to control; assay type: functional
Candida albicans [12] = experiment: Antifungal activity against Candida albicans SC5314 assessed as inhibition of fungal growth at 0.03125 ug/ml incubated for 18 hrs by M27-A3 based microdilution method relative to control; assay type: functional
Candida albicans [13] = experiment: Antifungal activity against Candida albicans SC5314 assessed as inhibition of fungal growth at 0.03125 ug/ml incubated for 48 hrs by M27-A3 based microdilution method relative to control; assay type: functional
Candida albicans [14] = experiment: Antifungal activity against Candida albicans SC5314 assessed as inhibition of fungal growth at 0.25 ug/ml incubated for 48 hrs by M27-A3 based microdilution method relative to control; assay type: functional
Candida albicans [15] = experiment: Antifungal activity against Candida albicans SC5314 assessed as inhibition of fungal growth at 16 ug/ml incubated for 18 hrs by M27-A3 based microdilution method relative to control; assay type: functional
Candida albicans [16] = experiment: Antifungal activity against Candida albicans SC5314 assessed as inhibition of fungal growth at 0.5 ug/ml incubated for 48 hrs by M27-A3 based microdilution method relative to control; assay type: functional
Candida albicans [17] = experiment: Antifungal activity against Candida albicans SC5314 assessed as inhibition of fungal growth at 2 ug/ml incubated for 48 hrs by M27-A3 based microdilution method relative to control; assay type: functional
Candida albicans [18] = experiment: Antifungal activity against Candida albicans SC5314 assessed as inhibition of fungal growth at 0.125 ug/ml incubated for 18 hrs by M27-A3 based microdilution method relative to control; assay type: functional
Candida albicans [19] = experiment: Antifungal activity against Candida albicans SC5314 assessed as inhibition of fungal growth at 8 ug/ml incubated for 48 hrs by M27-A3 based microdilution method relative to control; assay type: functional
Candida albicans [20] = experiment: Antifungal activity against Candida albicans SC5314 assessed as inhibition of fungal growth at 4 ug/ml incubated for 48 hrs by M27-A3 based microdilution method relative to control; assay type: functional
[21] = Toxicity in Galleria mellonella larvae assessed as melanization of larvae at 0.05 ug/ml measured every 24 hrs upto 5 days relative to control; settings: 120 h, at 0.05 µg/mL, time < 5 day
[22] = Toxicity in Galleria mellonella larvae assessed as melanization of larvae at 0.23 ug/ml measured every 24 hrs upto 5 days relative to control; settings: 120 h, at 0.23 µg/mL, time < 5 day
Candida albicans [23] = experiment: Antifungal activity against Candida albicans assessed as inhibition of fungal growth measured after 48 hrs in presence of exogenous ergosterol by M27-A3 based broth microdilution; assay type: functional
Candida albicans [24] = experiment: Antifungal activity against Candida albicans assessed as inhibition of fungal growth measured after 48 hrs by M27-A3 based broth microdilution; assay type: functional

Structure (SMILES) | inhibition at 1 µg/mL (Candida albicans [1]) [%] | inhibition at 16 µg/mL (Candida albicans [2]) [%] | inhibition at 1 µg/mL (Candida albicans [3]) [%] | inhibition at 2 µg/mL (Candida albicans [4]) [%] | inhibition at 0.0625 µg/mL (Candida albicans [5]) [%] | inhibition at 0.125 µg/mL (Candida albicans [6]) [%] | inhibition at 0.5 µg/mL (Candida albicans [7]) [%] | inhibition at 4 µg/mL (Candida albicans [8]) [%] | inhibition at 8 µg/mL (Candida albicans [9]) [%] | inhibition at 0.25 µg/mL (Candida albicans [10]) [%] | inhibition at 0.0625 µg/mL (Candida albicans [11]) [%] | inhibition at 0.03125 µg/mL (Candida albicans [12]) [%] | inhibition at 0.03125 µg/mL (Candida albicans [13]) [%] | inhibition at 0.25 µg/mL (Candida albicans [14]) [%] | inhibition at 16 µg/mL (Candida albicans [15]) [%] | inhibition at 0.5 µg/mL (Candida albicans [16]) [%] | inhibition at 2 µg/mL (Candida albicans [17]) [%] | inhibition at 0.125 µg/mL (Candida albicans [18]) [%] | inhibition at 8 µg/mL (Candida albicans [19]) [%] | inhibition at 4 µg/mL (Candida albicans [20]) [%] | other results
COc1ccc(-n2nnnc2SCCCN2C(=O)CN=C(c3ccccc3Br)c3cc(F)ccc32)cc1 | 98.9 | 98.5 | 98.8 | 98.7 | 98.8 | 98.9 | 98.7 | 98.8 | 98.6 | 98.5 | 98.7 | 98.8 | 98.8 | 98.6 | 98.1 | 98.8 | 98.8 | 98.8 | 98.7 | 98.8 | 
Cc1ccc(-c2nnn(CCCN3C(=O)CN=C(c4ccccc4Br)c4cc(F)ccc43)n2)cc1 | 95 | 95.4 | 93.8 | 98.1 | 96.5 | 97.2 | 92.3 | 94.7 | 100 | 97.8 | 99.2 | 100 | 100 | 98.2 | 100 | 95.8 | 96.4 | 98.5 | 97.6 | 95.4 | 
O=C1CN=C(c2ccccc2Br)c2cc(F)ccc2N1 | 99.2 | 99.1 | 99 | 99 | 98.7 | 99.1 | 99.2 | 99.2 | 99.3 | 98.9 | 98.7 | 99.1 | 99.1 | 99.1 | 98.9 | 99.2 | 99.1 | 99.1 | 99.1 | 99.2 | 
ClCCCSc1nnnn1-c1ccccc1 | 98.6 | 98.9 | 98.5 | 98.5 | 98.8 | 98.8 | 98.3 | 98.8 | 98.7 | 98.8 | 98.6 | 98.8 | 98.9 | 98.9 | 98.7 | 98.4 | 98.6 | 98.6 | 98.8 | 98.9 | 
COc1ccc(-n2nnnc2SCCCCl)cc1 | 99.8 | 99.8 | 99.9 | 100 | 99.8 | 99.9 | 99.9 | 99.8 | 99.8 | 100 | 99.9 | 99.8 | 99.7 | 99.9 | 99.9 | 99.7 | 99.8 | 99.9 | 99.8 | 99.8 | 
O=C1CN=C(c2ccccc2Br)c2cc(F)ccc2N1CCCn1nnc(-c2ccccc2)n1 | 98.9 | 98.4 | 99.4 | 99.6 | 98.6 | 98.4 | 99.5 | 99.6 | 98.4 | 99.8 | 99.4 | 100 | 100 | 99 | 98.5 | 99.3 | 98.4 | 99.8 | 98.5 | 98.9 | 
C[C@@H]1[C@H](O)[C@@H](C)/C=C/C=C/C=C/C=C/C=C/C=C/C=C/[C@H](O[C@@H]2O[C@H](C)[C@@H](O)[C@H](N)[C@@H]2O)C[C@@H]2O[C@](O)(C[C@@H](O)C[C@@H](O)[C@H](O)CC[C@@H](O)C[C@@H](O)CC(=O)O[C@H]1C)C[C@H](O)[C@H]2C(=O)O [AMPHOTERICIN B] | 100 | 100 | 100 | 100 | 100 | 100 | 100 | 100 | 100 | 100 | 100 | 100 | 100 | 100 | 100 | 100 | 100 | 100 | 100 | 100 | Activity [21]: 10%
O=C1CN=C(c2ccccc2Br)c2cc(F)ccc2N1CCCSc1nnnn1-c1ccccc1 | 99.7 | 99.8 | 99.8 | 99.8 | 99.7 | 99.8 | 99.9 | 99.9 | 99.9 | 99.8 | 99.7 | 100 | 99.9 | 99.7 | 99.8 | 99.8 | 99.7 | 99.9 | 99.8 | 99.8 | 
CCC(C)n1ncn(-c2ccc(N3CCN(c4ccc(OCC5COC(Cn6cncn6)(c6ccc(Cl)cc6Cl)O5)cc4)CC3)cc2)c1=O (centres undefined) [ITRACONAZOLE] |  |  |  |  |  |  |  |  |  |  |  |  |  |  |  |  |  |  |  |  | Activity [22]: 13%; MIC (Candida albicans [23]): 0.5 µg/mL; MIC (Candida albicans [24]): 0.32 µg/mL (≈ 0.453 µM)
